How the values were obtained:
[1] = target: T1, Endothelin-1 receptor (Homo sapiens, UniProt P25101); type: cell membranes, CHO-K1, Membrane; conditions: cho-k1; further: in other assays of this panel Not Active means under 50% inhibition at 10 µM
T1 sequence (P25101 whole entry): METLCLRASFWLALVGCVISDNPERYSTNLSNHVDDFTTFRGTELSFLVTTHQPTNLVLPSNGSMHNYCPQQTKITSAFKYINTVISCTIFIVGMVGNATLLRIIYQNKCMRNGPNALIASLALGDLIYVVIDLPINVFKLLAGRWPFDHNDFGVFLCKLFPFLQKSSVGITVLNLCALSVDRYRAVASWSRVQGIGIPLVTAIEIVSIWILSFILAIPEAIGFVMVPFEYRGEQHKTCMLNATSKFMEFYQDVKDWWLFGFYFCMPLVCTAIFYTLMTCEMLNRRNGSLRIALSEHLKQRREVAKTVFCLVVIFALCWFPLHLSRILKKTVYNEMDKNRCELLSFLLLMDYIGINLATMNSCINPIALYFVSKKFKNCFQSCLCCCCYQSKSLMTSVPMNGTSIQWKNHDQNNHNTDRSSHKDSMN

[2] = target: T2, Neuropeptide Y receptor type 1 (Homo sapiens, UniProt P25929); type: cell membranes, Membrane; conditions: sk-n-mc; further: in other assays of this panel Not Active means under 50% inhibition at 10 µM
T2 sequence (P25929 whole entry): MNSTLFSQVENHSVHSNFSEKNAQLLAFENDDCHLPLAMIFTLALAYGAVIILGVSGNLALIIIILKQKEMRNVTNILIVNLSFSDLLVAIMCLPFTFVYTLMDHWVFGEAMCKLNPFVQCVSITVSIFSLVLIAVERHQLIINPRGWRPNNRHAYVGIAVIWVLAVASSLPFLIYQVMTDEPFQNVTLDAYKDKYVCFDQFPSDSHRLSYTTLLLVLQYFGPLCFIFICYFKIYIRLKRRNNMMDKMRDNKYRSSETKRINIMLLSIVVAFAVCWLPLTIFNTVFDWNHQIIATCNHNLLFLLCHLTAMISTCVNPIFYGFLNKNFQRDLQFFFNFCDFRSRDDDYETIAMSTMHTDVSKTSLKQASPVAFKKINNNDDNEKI

[3] = target: Tyrosine-protein kinase Lck (Homo sapiens, UniProt P06239); assay: DRUGMATRIX: Protein Tyrosine Kinase, LCK enzyme inhibition (substrate: Poly(Glu:Tyr)); type: cell-based, Insect cells; conditions: insect cells; Not Active = under 50% inhibition at 10 µM
[4] = target: T3, Alpha-2A adrenergic receptor (Homo sapiens, UniProt P08913); type: cell membranes, Sf9, Membrane; conditions: sf9; further: in other assays of this panel Not Active means under 50% inhibition at 10 µM
T3 sequence (P08913 whole entry): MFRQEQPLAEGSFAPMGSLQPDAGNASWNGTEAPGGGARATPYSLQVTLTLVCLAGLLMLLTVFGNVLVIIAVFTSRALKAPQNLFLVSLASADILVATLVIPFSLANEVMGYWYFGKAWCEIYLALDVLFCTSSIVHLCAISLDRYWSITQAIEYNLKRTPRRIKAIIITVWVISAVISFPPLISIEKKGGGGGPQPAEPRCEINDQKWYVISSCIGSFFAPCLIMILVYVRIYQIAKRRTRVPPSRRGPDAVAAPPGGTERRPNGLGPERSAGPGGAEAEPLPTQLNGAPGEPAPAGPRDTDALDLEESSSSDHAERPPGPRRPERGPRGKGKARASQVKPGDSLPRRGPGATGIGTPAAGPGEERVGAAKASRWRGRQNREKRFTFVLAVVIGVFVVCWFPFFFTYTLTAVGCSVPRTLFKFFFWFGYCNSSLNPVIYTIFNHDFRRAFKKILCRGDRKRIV

[5] = target: T4, Amine oxidase [flavin-containing] A (Homo sapiens, UniProt P21397); assay: DRUGMATRIX: Monoamine Oxidase MAO-A enzyme inhibition (substrate: Kynuramine); set-up: species or system BTI-TN-5B1-4; conditions: bti-tn-5b1-4; Not Active = under 50% inhibition at 10 µM
T4 sequence (P21397 whole entry): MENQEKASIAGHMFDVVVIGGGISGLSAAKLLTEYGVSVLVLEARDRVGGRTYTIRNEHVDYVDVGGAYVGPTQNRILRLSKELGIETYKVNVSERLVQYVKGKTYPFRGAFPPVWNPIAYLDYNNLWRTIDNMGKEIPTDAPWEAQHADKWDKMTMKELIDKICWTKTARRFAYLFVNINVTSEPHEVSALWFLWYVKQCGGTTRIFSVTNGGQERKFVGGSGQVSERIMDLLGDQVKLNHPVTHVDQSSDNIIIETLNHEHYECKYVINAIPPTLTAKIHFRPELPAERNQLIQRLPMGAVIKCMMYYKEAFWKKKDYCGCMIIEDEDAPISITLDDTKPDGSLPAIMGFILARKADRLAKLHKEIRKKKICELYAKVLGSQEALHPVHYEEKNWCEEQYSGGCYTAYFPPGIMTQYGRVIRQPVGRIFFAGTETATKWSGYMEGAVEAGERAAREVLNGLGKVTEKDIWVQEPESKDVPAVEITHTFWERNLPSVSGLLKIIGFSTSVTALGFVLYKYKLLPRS

Sequence of Tyrosine-protein kinase Lck (P06239 whole entry): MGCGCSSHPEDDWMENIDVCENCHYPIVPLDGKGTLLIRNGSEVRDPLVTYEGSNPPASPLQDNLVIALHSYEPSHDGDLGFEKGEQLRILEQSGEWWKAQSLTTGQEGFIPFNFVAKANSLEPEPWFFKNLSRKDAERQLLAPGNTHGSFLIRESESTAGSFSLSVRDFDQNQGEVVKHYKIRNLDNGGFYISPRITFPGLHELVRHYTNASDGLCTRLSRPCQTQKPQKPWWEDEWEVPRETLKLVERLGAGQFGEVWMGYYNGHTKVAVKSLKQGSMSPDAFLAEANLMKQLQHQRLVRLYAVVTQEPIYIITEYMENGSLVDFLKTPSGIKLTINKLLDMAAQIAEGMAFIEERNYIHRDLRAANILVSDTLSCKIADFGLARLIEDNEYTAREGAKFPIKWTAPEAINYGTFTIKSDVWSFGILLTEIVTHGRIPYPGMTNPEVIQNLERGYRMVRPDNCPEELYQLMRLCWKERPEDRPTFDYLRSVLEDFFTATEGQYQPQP

| Molecule | IC50 [1] | IC50 [2] | IC50 [3] | IC50 [4] | IC50 [5] | Ki [1] | Ki [2] | Ki [3] | Ki [4] | Ki [5] | IC50 ([4]; read-out: IC50) [nM] | Ki ([4]; read-out: Ki) [nM] |
| --- | --- | --- | --- | --- | --- | --- | --- | --- | --- | --- | --- | --- |
| COc1ccc(CN2CCNCC2)c(OC)c1OC [TRIMETAZIDINE] | Not Active | Not Active | Not Active | Not Active | Not Active | – | – | – | – | – | – | – |
| CC(=O)O[C@H]1C[C@@H]2CC[C@@H]3[C@H](CC[C@@]4(C)[C@H]3C[C@H]([N+]3(C)CCCCC3)[C@@H]4OC(C)=O)[C@@]2(C)C[C@@H]1N1CCCCC1.[Br-] [VECURONIUM BROMIDE] | Not Active | Not Active | Not Active | Not Active | Not Active | – | – | – | – | – | – | – |
| COc1cc(C(=O)NS(=O)(=O)c2ccccc2C)ccc1Cc1cn(C)c2ccc(NC(=O)OC3CCCC3)cc12 [ZAFIRLUKAST] | Not Active | Not Active | Not Active | Not Active | Not Active | – | – | – | – | – | – | – |
| Cc1cn([C@H]2C[C@H](N=[N+]=[N-])[C@@H](CO)O2)c(=O)[nH]c1=O [ZIDOVUDINE] | Not Active | Not Active | Not Active | Not Active | Not Active | – | – | – | – | – | – | – |
| STANNOUS FLUORIDE | Not Active | Not Active | Not Active | Not Active | Not Active | Not Active | Not Active | Not Active | Not Active | Not Active | – | – |
| THIMEROSAL | Not Active | Not Active | Not Active | – | Not Active | Not Active | Not Active | Not Active | – | Not Active | 532 | 200 |

Reference: ChEMBL document CHEMBL1909046, “DrugMatrix in vitro pharmacology data”
